# Legend:
# S. aureus ATCC 25923 = assay: MIC determination, broth micro-dilution (CAMHB); format: cell-based, Staphylococcus aureus
# Procedure: (§1) Four strains of bacteria were chosen for the susceptibility tests: S. aureus ATCC 25923; MRSA (a wild clinical strain from the JCU culture collection); E. coli ATCC 25922 and P. aeruginosa ATCC 27853. The bacteria were grown on Mueller Hinton agar (OXOID, cat. No. CM0337) and suspended in growth medium cation-adjusted Mueller Hinton broth (CAMHB, OXOID, cat. No. CM0405). The MIC of each complex was determined in duplicate by standard micro-dilution methodology (British Society for Antimicrobial Chemotherapy Working Party, J. Antimicrob. Chemother., 1991, 27(suppl. D), 22) using gentamicin as the positive control. The ruthenium complexes were dissolved in CAMHB to a stock solution of […] and two-fold diluted in the broth in 96-well plates in a final volume of […] in each well. The same volume […] of bacterial suspension was added in each well making a concentration range of 0.25 mg ml^−1 to 128 mg ml^−1 for each complex. The plates were incubated at 37° C. for 24 h. The results are summarised in Table 1 below, using the following abbreviations: • Rubpm=ΔΔ-[{Ru(phen)2}2(μ-2,2′-bipyrimidine)]Cl4 • Rudppm=ΔΔ-[{Ru(phen)2}2(μ-4,6-bis(2-pyridyl)pyrimidine)]Cl4 • Rubb7trinuclear=Δ*Δ*-[{Ru*(phen)2}(μ-bb7){Ru(phen)}(μ-bb7){Ru*(phen)2}]Cl6 (only the two terminal metal centres are chiral, the two central metal centres are racemic) • Rubb7tetranuclear=Δ*Δ*-[{Ru*(phen)2}(μ-bb7) {Ru(phen)}(μ-bb7){Ru(phen)}(μ-bb7)-{Ru*(phen)2}]Cl8 (only the two terminal metal centres are chiral, the two central metal centres are racemic)
# (§2) Further MIC assays and Minimum Bactericidal Concentration (MBC) assays were conducted against Gram-positive and Gram-negative bacterial strains using symmetric and non-symmetric, inert and labile complexes.
# E. coli = assay: Minimum Bactericidal Concentration (MBC) assay (CAMHB); format: cell-based, Escherichia coli; details: Table 4, all ΔΔ- enantiomers
# Procedure: as §2
# [1] = tested on: MRSA (a wild clinical strain from the JCU culture collection); assay: MIC determination, broth micro-dilution (CAMHB); format: cell-based, methicillin-resistant S. aureus
# Procedure: as §1, §2
# P. aeruginosa ATCC 27853 = assay: MIC determination, broth micro-dilution (CAMHB); format: cell-based, Pseudomonas aeruginosa
# Procedure: as §1, §2
# E. coli ATCC 25922 = assay: MIC determination, broth micro-dilution (CAMHB); format: cell-based, Escherichia coli
# Procedure: as §1, §2
# MRSA = assay: Minimum Bactericidal Concentration (MBC) assay (CAMHB); format: cell-based, methicillin-resistant S. aureus; details: Table 4, all ΔΔ- enantiomers
# Procedure: as §2
# S. aureus = assay: as above; format: cell-based, Staphylococcus aureus; details: Table 4, all ΔΔ- enantiomers
# Procedure: as §2
# P. aeruginosa = assay: as above; format: cell-based, Pseudomonas aeruginosa; details: Table 4, all ΔΔ- enantiomers
# Procedure: as §2
# E. faecalis = assay: Further MIC assays, whole spectrum bacteria (CAMHB); format: cell-based; parameters: unit not given beside the values; details: Table 3; Broth: CAMHB
# Procedure: (§3) Further MIC assays were conducted against five different bacteria with Rubbn (n=7, 10, 12, 16), two rigid dinuclear species (bridges bpm and dppm) and Gentamicin—Whole spectrum bacteria MIC test results (Broth: CAMHB).
# S. epidermidis = assay: as above; format: cell-based; details: Table 3; Broth: CAMHB
# Procedure: as §3
# S. typhimurium = assay: as above; format: cell-based; details: Table 3; Broth: CAMHB
# Procedure: as §3
# VRE = assay: as above; format: cell-based, vancomycin-resistant Enterococcus; details: Table 3; Broth: CAMHB
# Procedure: as §3
# A. baumanii = assay: as above; format: cell-based; parameters: unit not given here; details: Table 3; Broth: CAMHB
# Procedure: as §3
# [2] = format: physicochemical; details: pH 7.4
# Procedure: The primary difference between the members of the Rubbn family of complexes is the number of methylene groups in the flexible linking chain. […] Lipophilicity is a significant factor affecting the biological activity of most therapeutic compounds, as it relates to the capacity of the drug to penetrate through the cell membrane. The standard octanol-water partition coefficient (logP) was determined for the Rubbn series (F. Lombardo, B. Faller, M. Shalaeva, I. Tetko and S. Tilton, Methods and Principles in Medicinal Chemistry, 2008, 37, 407) parent model mononuclear species ([Ru(phen)2(Me2bpy)]^2+) and the trinuclear and tetranuclear complexes.
# The partition coefficients (logP) were measured using the shake flask technique: each ruthenium complex (at both 0.05 and 0.1 mM) was dissolved in the water phase (0.2 M Na2HPO4—NaH2PO4 buffer, pH=7.4) and an equivalent volume of n-octanol was added.
# The two phases were mutually saturated by shaking overnight at ambient temperature and then were allowed to separate on standing. The concentration of the metal complex in each phase was determined spectrophotometrically at l=450 nm.
# [3] = Table 4, CAMHB, all ΔΔ- enantiomers
Molecule,MIC S. aureus (S. aureus ATCC 25923; [3]),MBC E. coli (E. coli),"MIC MRSA [1, 3]",MIC P. aeruginosa (P. aeruginosa ATCC 27853; [3]),MIC E. coli (E. coli ATCC 25922; [3]),MBC MRSA (MRSA),MBC S. aureus (S. aureus),MBC P. aeruginosa (P. aeruginosa),"MIC S. aureus (S. aureus ATCC 25923; Table 1, 37° C., 24 h)","MIC MRSA ([1]; Table 1, 37° C., 24 h)","MIC P. aeruginosa (P. aeruginosa ATCC 27853; Table 1, 37° C., 24 h)",MIC E. faecalis (E. faecalis),"MIC E. coli (E. coli ATCC 25922; Table 1, 37° C., 24 h)",MIC S. epidermidis (S. epidermidis),MIC S. typhimurium (S. typhimurium),MIC VRE (VRE),MIC A. baumanii (A. baumanii),logP [2]
[{Ru(terpy)Cl}2(μ-bb7)] [Rubb7-Cl],8,8 µg/mL,8,32,8,16 µg/mL,8 µg/mL,64 µg/mL,,,,,,,,,,
"Cc1cc[n+]2c(c1)-c1cc(CCCCCCCc3cc[n+]4c(c3)-c3cc(C)cc[n+]3[Ru-4]435([n+]4cccc6ccc7ccc[n+]3c7c64)[n+]3cccc4ccc6ccc[n+]5c6c43)cc[n+]1[Ru-4]213([Cl])[n+]2ccccc2-c2cccc([n+]21)-c1cccc[n+]13 [Ru(μ-bb7)Ru—Cl, [Ru(phen)2(μ-bb7)Ru(terpy)Cl]]",8,1 µg/mL,8,16,1,32 µg/mL,16 µg/mL,32 µg/mL,,,,,,,,,,
[{Ru(terpy)(Cl)}2(μ-bb14)](PF6)2 [Rubb14-Cl],1,2 µg/mL,1,32,2,2 µg/mL,1 µg/mL,64 µg/mL,,,,,,,,,,
"[Cl-].[Cl-].[Cl-].[Cl-].c1cc[n+]2c(c1)-c1cc3[n+](c[n+]1[Ru-4]214([n+]2cccc5ccc6ccc[n+]1c6c52)[n+]1cccc2ccc5ccc[n+]4c5c21)[Ru-4]12([n+]4ccccc4-3)([n+]3cccc4ccc5ccc[n+]1c5c43)[n+]1cccc3ccc4ccc[n+]2c4c31 [Rudppm, ΔΔ-[{Ru(phen)2}2(μ-4,6-bis(2-pyridyl)pyrimidine)]Cl4, reference compound]",,,,,,,,,>128 µg/mL,>128 µg/mL,>128 µg/mL,>128,>128 µg/mL,>128,>128,>128,>128,
[Ru(phen)2(μ-bb16)Ru(terpy)Cl](PF6)3 [Ru(μ-bb16)Ru—Cl],2,4 µg/mL,2,64,4,2 µg/mL,2 µg/mL,64 µg/mL,,,,,,,,,,
"ΔΔ-[{Ru(phen)2}2(μ-2,2′-bipyrimidine)]Cl4 [Rubpm, reference compound]",,,,,,,,,>128 µg/mL,>128 µg/mL,>128 µg/mL,>128,>128 µg/mL,>128,>128,>128,>128,
Δ-[Ru(phen)2(bb16)]Cl2 [Rubb16mono],,,,,,,,,16 µg/mL,16 µg/mL,64 µg/mL,,64 µg/mL,,,,,+2.1
Δ*Δ*-[{Ru*(phen)2}(μ-bb7){Ru(phen)}(μ-bb7){Ru*(phen)2}]Cl6 [Rubb7trinuclear],,,,,,,,,4 µg/mL,4 µg/mL,2 µg/mL,,16 µg/mL,,,,,−1.2
"Cc1ccnc(-c2cc(CCCCCCCc3cc[n+]4c(c3)-c3cc(C)cc[n+]3[Ru-4]435([n+]4cccc6ccc7ccc[n+]3c7c64)[n+]3cccc4ccc6ccc[n+]5c6c43)ccn2)c1 [Rubb7mono, Δ-[Ru(phen)2(bb7)]^2+]",,,,,,,,,4 µg/mL,16 µg/mL,32 µg/mL,,16 µg/mL,,,,,−0.7
"Δ-[Ru(phen)2(Me2bipy)](PF6)2 [[Ru(phen)2(Me2bpy)]^2+, reference compound]",,,,,,,,,128 µg/mL,>128 µg/mL,>128 µg/mL,,>128 µg/mL,,,,,−2.9
[Ru(phen)2(μ-bb12)Ru(terpy)Cl](PF6)3 [Ru(μ-bb12)Ru—Cl],1,1 µg/mL,1,16,1,2 µg/mL,1 µg/mL,32 µg/mL,,,,,,,,,,
"Cc1cc[n+]2c(c1)-c1cc(CCCCCCCCCCCCc3cc[n+]4c(c3)-c3cc(C)cc[n+]3[Ru-4]435([Cl])[n+]4ccccc4-c4cccc([n+]43)-c3cccc[n+]35)cc[n+]1[Ru-4]213([Cl])[n+]2ccccc2-c2cccc([n+]21)-c1cccc[n+]13.F[P-](F)(F)(F)(F)F.F[P-](F)(F)(F)(F)F [Rubb12-Cl, [{Ru(terpy)(Cl)}2(μ-bb12)](PF6)2]",1,2 µg/mL,1,8,2,1 µg/mL,1 µg/mL,16 µg/mL,,,,,,,,,,
"Cc1cc[n+]2c(c1)-c1cc(CCCCCCCc3cc[n+]4c(c3)-c3cc(C)cc[n+]3[Ru-4]435([n+]4cccc6ccc7ccc[n+]3c7c64)[n+]3cccc4ccc6ccc[n+]5c6c43)cc[n+]1[Ru-4]213([n+]2cccc4ccc5ccc[n+]1c5c42)[n+]1cccc2ccc4ccc[n+]3c4c21.F[P-](F)(F)(F)(F)F.F[P-](F)(F)(F)(F)F.F[P-](F)(F)(F)(F)F.F[P-](F)(F)(F)(F)F [Rubb7, [{Ru(phen)2}2(μ-bb7)](PF6)4]",16,16 µg/mL,16,64,16,32 µg/mL,32 µg/mL,128 µg/mL,,,,,,,,,,−3.4

# Source: patent US20130172308A1, “ANTIMICROBIAL AGENTS” (John Grant COLLINS, priority 2011, published 2013)
